These results are taken from US7018806B2, “Method for identifying endocrine disruptors and kit for carrying out the same” (priority 2001, dated 2006).

A value given as a limit tells only on which side of the number the result lay.

One data set addresses T1, aromatase (Homo sapiens, UniProt P11511).
T1 construct: endogenous in cells; host or cells: KGN human ovarian granulosa-like tumor cell line (RIKEN RCB 1154)
T1 sequence (P11511 1-503): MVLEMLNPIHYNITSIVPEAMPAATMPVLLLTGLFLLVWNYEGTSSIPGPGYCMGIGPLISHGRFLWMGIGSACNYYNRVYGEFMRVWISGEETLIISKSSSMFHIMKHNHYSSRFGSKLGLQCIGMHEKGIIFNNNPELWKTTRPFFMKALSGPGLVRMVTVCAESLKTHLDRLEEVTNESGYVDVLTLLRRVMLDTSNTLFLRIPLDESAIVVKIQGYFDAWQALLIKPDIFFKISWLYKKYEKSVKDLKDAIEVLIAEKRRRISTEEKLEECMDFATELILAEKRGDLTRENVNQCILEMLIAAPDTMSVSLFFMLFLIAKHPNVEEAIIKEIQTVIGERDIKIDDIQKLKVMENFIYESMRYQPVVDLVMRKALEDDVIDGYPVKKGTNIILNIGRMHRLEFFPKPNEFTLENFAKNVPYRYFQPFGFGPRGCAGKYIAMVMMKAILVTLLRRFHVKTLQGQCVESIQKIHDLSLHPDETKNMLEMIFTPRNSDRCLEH
Put plainly: Aromatase activity in KGN cells by [3H]H2O release assay. The conditions noted are these: for effect on aromatase activity in KGN cells: method of Example 3, FIGS. 5A–5B. Type of data set: cell-based. The protocol: Assaying for inhibition or activation of aromatase activity may be carried out by measuring the amount of [^3H]H2O released upon conversion of [1β-^3H]androstenedione to estrone using a modification of the method of Ackerman et al, J. Clin. Endocrinol. Metab., 53:412–417 (1981), or as described in Example 3 below. Briefly, the cells are plated on a petri dish (Falcon 3001) in culture medium with 10% (v/v) fetal calf serum (FCS). At is confluence, the culture medium is replaced with DMEM/Ham's F-12 containing 5.0–10% (v/v) dextran-coated, charcoal-treated FCS (DCS) (Hyclone, Logan Utah), and incubated for another 12 h in the presence or absence of 10^−5–10^−2 M db-cAMP (Wako Pure Chemical Industries Ltd.) and the test compound. After treatment, the cells are further incubated with 12.5 nM [1β-^3H]androstenedione (NEN Life Science Products, Boston, Mass.; SA, 27.5 Ci/mmol) for 6–12 h. After incubation, the medium (2.0 ml) is transferred to tubes containing 1.0 ml ice-cold 30% (w/v) trichloroacetic acid (TCA), and then centrifuged to remove precipitated protein. The cells are harvested using 0.25% (w/v) trypsin-1.0 mM EDTA to determine the protein concentration. The protocol for the extraction of the medium to measure the amount of [^3H]H2O is performed as described by Tanaka et al, Calcif. Tissue Int., 52:107–109 (1993). Finally, the amount of radioactivity in the [^3H]H2O is corrected by subtracting the blank values from each sample. The cell protein content is determined using a micro bicinichoninic acid kit (Pierce Chemical Co., Rockford, Ill.) after the cells are dissolved in 1.0 N NaOH. The aromatase activity is expressed as picomoles per mg cell protein. As a control, the aromatase activities of human granulosa cells (obtained from in vitro fertilization programs), human fibroblast, and HOS cell (human osteoblast-like cell line) (Tanaka et al, supra) can be measured in the same manner.
More specifically, aromatase activity was determined by measuring [^3H] H2O release upon conversion of [1β-^3H]androstenedione (A) to estrone (E1), as described by Mu et al, Biochem. Biophys. Res. Commun., 271(3):710–713 (2000). [1β-^3H]androstenedione was purchased from Amersham Pharmacia Biotech (Boston, Mass.).
The medium (2.0 ml) was extracted with chloroform, and was then centrifuged. The aqueous supernatant was mixed with 5.0% (w/v) charcoal/0.5% (w/v) dextran, and incubated for 30 min. Thereafter, the mixture was centrifuged and the supernatant was added to 5.0 ml of scintillation fluid and assayed for radioactivity. The amount of radioactivity in [^3H]H2O thus measured was standardized based on the protein concentration, which was determined using a micro BCA kit (Pierece Chemical Co., Rockford, Ill.), and expressed as pmol/mg protein/6 h.

A further data set concerns marine neogastropods. Particulars: cited from earlier work.
The test system of the next data set is P450arom promoter II. Put plainly: Luciferase reporter assay of P450arom promoter II in transfected KGN cells. Type of data set: cell-based, human. Particulars: for luciferase activity of P450arom promoter II: 20 ng/ml, 48 h, basic state or stimulated by db-cAMP; for Ad4BP/SF-1-dependent increase of the luciferase activity: co-transfected with Ad4BP expression vector. The protocol: Thus, to determine whether or not the decreased expression of P450arom mRNA was regulated through promoter II, which is the major promoter in ovarian granulosa cells (Nishi et al, Endocrinol., 142:437–445 (2001); Means et al, Mol. Endocrinol., 5:2005–2013 (1991); and Carlone et al, Mol. Endocrinol., 11:292–304 (1997)), luciferase activity was determined using a 1 kb P450arom promoter II expression construct in the luciferase reporter vector, pGL3 (Mu et al, Mol. Cell. Endocrinol., 181:239–248 (2001)). pGL3 was obtained from Promega (Madison, Wis.). Transfection was performed using SuperFect reagents according to the manufacturer's instructions (Qiagen (Hilden, Germany)). More specifically, 1×10^5 cells were seeded in a 6-well plate 12 h prior to transfection, and transfected with 2.0 μg of DNA. Five nanograms of Renilla luciferase control reporter vector, pRL-CMV, obtained from Promega (Madison, Wis.), as an internal standard, were added per well to assess the transfection efficiency. […] The promoter activity determined is shown as a fold-increase in the luciferase activity normalized for Renilla luciferase activity (termed relative luciferase activity).

Data set [1] concerns KGN cells. Put plainly: Effect on KGN cell growth (cell counting, trypan blue exclusion). The data set is classed as cell-based, human. The conditions noted are these: for toxicity to KGN cells: more than 1000 ng/ml, within 24 h. The protocol: Further, both compounds were dissolved in ethanol, and the final concentration of ethanol in the cell growth medium was 0.1% (w/v).
More specifically, the cells were plated onto a 24-well plate at 1×10^4 cells/well in DMEM/F-12 supplemented with 10% (v/v) FCS. […] Cell viability was assessed by the trypan blue exclusion method.

For a further data set, the system named is P450arom mRNA. Particulars: 20 ng/ml, 48 h. The protocol: RNA extraction and RT-PCR analysis for P450arom mRNA were performed as described by Ikuyama et al, Clin. Endrocrinol., 48(5):647–654 (1998). Taq DNA polymerase was obtained from Promega (Madison, Wis.) All of the primers for the PCR were synthesized by Amersham Pharmacia Biotech (Osaka, Japan). The PCR products were electrophoresed on 2.0% (w/v) agarose gel containing […] ethidium bromide.
The relative expression levels of P450arom vis-à-vis β-actin were determined by the measuring of the intensity of the ethidium bromide.

In a further data set the test system is Ad4BP. As to the kind of experiment: Expression level of Ad4BP in KGN cells by RT-PCR. Type of data set: cell-based, human.
For data set [2], the system named is KGN cells. Particulars: 200 ng/ml.
Experimental: More specifically, early and late apoptotic changes in the cells were determined using an Annexin V-EGFP/PI Apoptosis Detection Kit, as described by Mu et al, Endocrinol., 142:3590–3597 (2001). […] After the treatment, the cells were washed once with phosphate-buffered saline (PBS), and then incubated with 200 ml of 1× binding buffer comprising 1.0 ml annexin V-EGFP and 1.0 ml propidium iodide (PI) at room temperature for 5 min in the dark. The cells were then scanned using a confocal laser scanning microscopy (Leica TCS-SP system, Leica Microsystems, Heidelberg, Germany) using a dual filter set for FITC & TRITC. The cell membrane was imaged for green fluorescence (stained by annexin V-EGFP) by excitation with the 488 nm line from an argon laser, and the emission was viewed through a 460 to 505 nm band pass filter. The cell nucleus was imaged for red fluorescence (stained by PI) by excitation with the 560 nm line from an argon laser, and the emission was viewed through a 520 to 580 nm band pass filter.
Data set [3] relates to E2 production in KGN cells. Put plainly: Estradiol (E2) production in cultured KGN cells (RIA). Type of data set: cell-based, human. The conditions noted are these: 20 ng/ml, 7 days. The protocol:
The media was collected and the E2 content in the media was determined by specific RIA (SRL, Inc. Tokyo, Japan).

The next data set concerns Thais clavigera. Particulars: rock shell; cited from earlier work.
Where [4] appears, read: same culture system (KGN cells).

For the compound `CCCCNC(=O)n1c(NC(=O)OC)nc2ccccc21` [Benomyl], the “effect on aromatase activity in KGN cells” value (from here on “effect on aromatase activity”) on aromatase was “activate aromatase activity”.
Regarding `c1ccc2c(c1)c1cccc3ccc4cccc2c4c31` [Benzopyrene], at aromatase, the “effect on aromatase activity” value was “activate aromatase activity”.
On to `ClC1=C(Cl)C2(Cl)C3C(Cl)C=CC3C1(Cl)C2(Cl)Cl` (stereo not shown) [Heptachlor], for which the “effect on aromatase activity” value at aromatase is on record as “activate aromatase activity”.
For `CC1=CC(=O)C=C2CC[C@@H]3[C@H](CC[C@]4(C)C(=O)CC[C@@H]34)[C@@]12C` [SH489], the imposex induction entry in the data set with marine neogastropods (compared with TBT-exposure) is given as “same imposex-inducing effect”.
Take `N#Cc1ccc(N(Cc2ccc(Br)cc2)n2cnnc2)cc1` [YM511]: at aromatase (setting [4]), the “extent of suppression of aromatase activity” value is reported as “complete suppression” and the “time for suppression of aromatase activity” value is recorded as ≤ 5 min.
As to `CC(=O)O[C@]1(C(C)=O)CC[C@H]2[C@@H]3C=C(Cl)C4=CC(=O)[C@@H]5C[C@@H]5[C@]4(C)[C@H]3CC[C@@]21C` [cyproterone acetate], the “effect on TBT-induced imposex” value in the data set with marine neogastropods (in vivo) is given as “completely suppressed”.
As to `CCCC(=O)Nc1ncnc2c1ncn2[C@@H]1O[C@@H]2COP(=O)(O)O[C@H]2[C@H]1OC(=O)CCC` [db-cAMP, dibutyryl cyclic AMP], at aromatase (10^−4 M db-cAMP), the “increase in aromatase activity over baseline” value was 1.7 fold. Moreover, the “activation of the P450arom promoter II” value with P450arom promoter II (10^−4 M db-cAMP) came out at 1.7 fold.
With tributyltin [TBT], the “toxicity to KGN cells” value with KGN cells [1] is on record as “all of the cells died”. The “P450arom mRNA levels” value in the data set on P450arom mRNA is “decrease”. Also, in the data set with P450arom promoter II, the “luciferase activity of P450arom promoter II” value is “decreased” and the “Ad4BP/SF-1-dependent increase of the luciferase activity” value was “significantly suppressed”. Besides, the “expression level of Ad4BP” value in the data set on Ad4BP is given as “unchanged”. Besides, the “apoptotic changes (annexin V positive/PI negative)” value in the data set with KGN cells [2] (48 h) was “early apoptotic cells”. Moreover, the “apoptotic changes (annexin V positive/PI positive)” value with KGN cells [2] (72 h) is “late apoptotic cells”.
Consider triphenyltin [TPT], for which the “effect on KGN cell proliferation” value in the data set on KGN cells [1] (less than 50 ng/ml (2 or 20 ng/ml), 7 days) is “little effect”. The “toxicity to KGN cells” value with KGN cells [1] is given as “all of the cells died”. For the same compound, the “aromatase activity, % of the baseline” value at aromatase (20 ng/ml, 72 h, basal (no db-cAMP)) was “about 30%”. Moreover, the “effect on db-cAMP-induced increase in aromatase activity” value at aromatase (20 ng/ml, with 10^−4 M db-cAMP) is reported as “suppressed”. Also, the “E2 concentration in the medium” value in data set [3] is “significant decrease”. Further, in the data set on P450arom promoter II, the “luciferase activity of P450arom promoter II” value is given as “decreased” and the “Ad4BP/SF-1-dependent increase of the luciferase activity” value is reported as “significantly suppressed”. Moreover, in the data set with Ad4BP, the “expression level of Ad4BP” value is listed as “unchanged”. Moreover, the “effect on the development of imposex” value in the data set on Thais clavigera is “strong effect”.
